Test results from patent US20150328329A1, “LIGANDS THAT TARGET HCV-E2 BINDING SITES ON CD81 AND THERAPEUTIC METHODS USING THEM” (American University of Cairo, priority 2012, published 2015).

What was measured:
recombinant CD81-LEL = molecular target: T1, recombinant CD81-LEL (Homo sapiens, UniProt P60033); assay: SPR (Biacore T100) binding of additional ligands to immobilized CD81-LEL (Example 6); details: Table E, ligand 200 uM in PBS-1% DMSO
T1 construct: the large extracellular loop of CD81 (CD81-LEL); GST; His; Shoshana Levy Lab, Stanford (gift)
T1 sequence (P60033 113-201 limits assumed): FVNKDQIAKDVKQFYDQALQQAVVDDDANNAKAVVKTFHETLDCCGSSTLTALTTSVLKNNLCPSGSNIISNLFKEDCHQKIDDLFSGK
Experimental: SPR analysis was performed using a Biacore T100 workstation (GE Healthcare, NJ, USA). A recombinant form of the CD81-LEL protein with a GST-tag (Shoshana Levy Lab-Stanford) was used to determine the binding affinities of the ligands in the above list. 10 uM CD81-LEL-His diluted into 10 mM sodium acetate buffer pH 4.5 was immobilized for […] at a flow speed of 5 ul/min onto a CM5 sensor chip using amine coupling (EDC-NHS). Approximately 20,000 RU of protein were immobilized on the chip. The ligands were prepared as 200 uM solutions in PBS-1% DMSO (the running buffer) and they were introduced to the protein using a pre-programmed 3 min association and 1 min dissociation interval. Ligands that bind have a positive RU (response units) number and the strength of binding to the CD81 protein is related to the magnitude of the RU number; the larger the number the more binding.

[1] = molecular target: T2, native CD81 on Raji cells (Homo sapiens, UniProt P60033); assay: Competition assay: inhibition of FITC-labeled JS-81 anti-CD81 antibody binding to native CD81 on live Raji cells (flow cytometry); format: cell-based
T2 construct: endogenous in cells; host or cells: Raji (human B cell line)
T2 sequence (P60033 1-236): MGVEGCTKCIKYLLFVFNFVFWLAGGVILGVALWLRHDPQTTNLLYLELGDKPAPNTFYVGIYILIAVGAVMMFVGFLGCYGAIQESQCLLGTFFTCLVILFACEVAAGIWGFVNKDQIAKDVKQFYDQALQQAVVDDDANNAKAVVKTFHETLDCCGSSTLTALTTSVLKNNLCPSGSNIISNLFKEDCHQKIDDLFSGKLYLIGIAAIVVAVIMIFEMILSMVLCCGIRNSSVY
Description: A subset of these ligands and some of those listed in the patent have been tested to identify those ligands that bind to the correct region of the CD81 protein and for binding to native CD81 on living cells (a Raji cell line). This assay tests three concentrations of the ligand to determine if the ligand is capable of inhibiting the binding of an antibody called JS-81. This antibody is known to bind to the region of the CD81 protein we have targeted. If the ligand decreases JS-81 binding as you increase the concentration of the ligand, it is 1) binding to native CD81 on the Raji cells and 2) it is binding to the correct region of the protein.
For antibody neutralization assay Raji cells were used, a human B cell line that expressed high amounts of CD81 on the surface (data not shown). Cells were grown in RPMI medium (10% FCS, 1% penicillin/streptomycin, 1% L-glutamine, 1% non-essential amino acids, 1% sodium pyruvate, pH 7.4, at 37° C. with 5% CO2). 2×10^5 cells were incubated with or without different concentrations (50 μM, 100 μM, 400 μM and 1 mM) of indicated inhibitor for 20 min at room temperature, subsequently 1 ul (16 ng/μl) of FITC-labeled anti CD81 antibody (BD Pharmingen, 551108) was added to the cells and incubated for 20 min (antibody titration was performed to obtain a working dilution range, data not shown). Cells were washed and analyzed by flow cytometry using fluorescence-activated cell sorting (FACS) (BD FACSCalibur, software: Cell Quest Pro). Mean Fluorescence Intensity MFI was calculated using Flowjo software (TreesStar, www.flowjo.com).

SMILES | Binding (RU) (recombinant CD81-LEL) | Inhibition of JS-81 Binding (%) ([1]; 50 μM ligand) | Inhibition of JS-81 Binding (%) ([1]; 100 μM ligand) | Inhibition of JS-81 Binding (%) ([1]; 400 μM ligand)
Cc1cc(C)c(N)c(C(=O)O)c1 [Ligand 90444] | 13.1 RU | 0% | 0% | 24%
O=C(O)c1ccccc1NCc1ccco1 [Ligand 331931] | 5.9 RU | – | – | –
O=C(O)CCc1cccnc1 [Ligand 89720] | 9.2 RU | – | – | –
NC(=O)NC(=O)c1nccnc1C(=O)O [Ligand 117922] | 10.2 RU | 0% | 12% | 26%
CC1CCCC(CC(=O)O)(CC(=O)O)C1 (stereo not shown) [Ligand 3001] | 4.6 RU | – | – | –
O=C(O)c1cc(O)ccc1/N=N/c1ccccc1 [Ligand 106863] | 11.6 RU | 0% | 0% | 19%
CC(OC(=O)Nc1cccc(Cl)c1)C(=O)O (stereo not shown) [Ligand 73170] | 4.3 RU | – | – | –
O=C(O)/C=C\C(=O)Nc1cccc2cccnc12 [Ligand 144958] | 4.1 RU | 0% | 54% | 12%
c1cncc(C2CCCCN2)c1 (stereo not shown) [Ligand 87504] | 57.9 RU | 0% | 6% | 20%
CCCCCCC(C)OC(=O)c1ccccc1C(=O)O (stereo not shown) [Ligand 524615] | 4.1 RU | – | – | –
CC(C)Oc1ccc(C(=O)O)cc1 [Ligand 16646] | 4.9 RU | – | – | –
O=C(O)Cn1ccc2ccccc21 [Ligand 75866] | 18.9 RU | 0% | 1% | 31%
O=C(O)c1ccc(N2CCCCC2)cc1O [Ligand 23895] | 10 RU | 0% | 0% | 17%
O=c1[nH]c2ccccc2n1C1=CCNCC1 [Ligand 88883] | 5.4 RU | – | – | –

Results, then the molecule that gave them:

Binding (RU) (recombinant CD81-LEL) | Inhibition of JS-81 Binding (%) ([1]; 50 μM ligand) | Inhibition of JS-81 Binding (%) ([1]; 100 μM ligand) | Inhibition of JS-81 Binding (%) ([1]; 400 μM ligand) | SMILES
9.3 RU | – | – | – | Cc1cc(N2CCN(C)CC2)n2nc(-c3ccc(Cl)cc3)nc2n1 [Ligand 252359]
4.1 RU | – | – | – | O=C(Nc1ccc(Br)c2ccccc12)c1ccc2ccccc2c1O [Ligand 601359]
5.4 RU | – | – | – | COc1cccc(C2Nc3cccc4cccc(c34)N2)c1 [Ligand 76823]
11.1 RU | 0% | 4% | 19% | Cc1ccc(-c2cc(C(=O)O)c3ccccc3n2)c(C)c1 [Ligand 25678]
9.6 RU | – | – | – | Cn1ncc2c(Nc3ccc(Br)cc3)nc(Nc3ccc(Br)cc3)nc21 [Ligand 11667]
14.7 RU | 0% | 0% | 19% | CCC(C)(C)c1ccc(Oc2cccc(C(=O)O)c2)cc1 [Ligand 7962]
10 RU | 0% | 6% | 26% | NS(=O)(=O)c1ccc(/N=N/c2c(O)c(C(=O)O)cc3ccccc23)cc1 [Ligand 134137]
2.5 RU | – | – | – | CCNc1nc(Cl)nc(-c2cn(-c3ccccc3)c3ccccc23)n1 [Ligand 142446]
